In brackets after ≈: the same amount, converted by molar mass. Where a name gives a salt, the structure may show the parent alone. Read-outs that look alike come from different tables or passages of the source.
Columns and labels:
K. pneumoniae Y-4* = assay: MIC, agar dilution, standard method of Japan Society of Chemotherapy; format: cell-based; conditions: Klebsiella pneumoniae
Procedure: (§1) According to the standard method of Japan Society of Chemotherapy [CHEMOTHERAPY, 29 (1), 76-79 (1981)], a bacteria solution obtained by culturing in Heart Infusion broth (manufactured by Eiken Kagaku) at 37° C. for 20 hours was inoculated onto a Heart Infusion agar containing a drug and cultured at 37° C. for 20 hours, after which the growth of the bacteria was observed, to determine the minimum concentration at which the growth of the bacteria was inhibited as MIC (μg/ml). The amount of the inoculated bacteria was 10^4 cells/plate (10^6 cells/ml).
(§2) The asterisk in Table 1 means β-Lactamase-producing bacteria.

P. aeruginosa GN-918* = assay: as above; format: cell-based; conditions: Pseudomonas aeruginosa
Procedure: as §1, §2

P. mirabilis T-111 = assay: as above; format: cell-based; conditions: Proteus mirabilis, T111, Heart Infusion agar, 37° C., 20 hours, 10^4 cells/plate (10^6 cells/ml)
Procedure: as §1

S. marcescens W-134 = assay: as above; format: cell-based; conditions: Serratia marcescens, W134, Heart Infusion agar, 37° C., 20 hours, 10^4 cells/plate (10^6 cells/ml)
Procedure: as §1

E. coli NIHJ = assay: as above; format: cell-based; conditions: Escherichia coli, Heart Infusion agar, 37° C., 20 hours, 10^4 cells/plate (10^6 cells/ml)
Procedure: as §1

E. coli TK-111 = assay: as above; format: cell-based; conditions: Escherichia coli, TK111, Heart Infusion agar, 37° C., 20 hours, 10^4 cells/plate (10^6 cells/ml)
Procedure: as §1

M. morganii T-216 = assay: as above; format: cell-based; conditions: Morganella morganii, T216, Heart Infusion agar, 37° C., 20 hours, 10^4 cells/plate (10^6 cells/ml)
Procedure: as §1

C. freundii N-7 = assay: as above; format: cell-based; conditions: Citrobacter freundii
Procedure: as §1

[1] = Acute toxicity, intravenous, mice; conditions: mouse, in vivo, ICR strain male mice, 22±1 g, in 0.1N aqueous sodium hydroxide, read-out: 50% lethal dosage (LD50)
Procedure: A test compound was intravenously administered to a group of three ICR strain male mice each weighing 22±1 g to investigate the acute toxicity.
The test compound was dissolved in a 0.1N aqueous sodium hydroxide solution, and the resulting solution was applied.

[2] = GN918, P. aeruginosa GN-918, β-Lactamase-producing, Heart Infusion agar, 37° C., 20 hours, 10^4 cells/plate (10^6 cells/ml), read-out: MIC
[3] = K. pneumoniae Y-4, β-Lactamase-producing, Heart Infusion agar, 37° C., 20 hours, 10^4 cells/plate (10^6 cells/ml), read-out: MIC
[4] = N7, C. freundii N-7, Heart Infusion agar, 37° C., 20 hours, 10^4 cells/plate (10^6 cells/ml), read-out: MIC

SMILES: CC1COc2c(N3CCN(C)CC3)c(F)cc3c(=O)c(C(=O)O)cn1c23 (racemic) [Control compd., (±)9-Fluoro-2,3-dihydro-3-methyl-10-(4-methyl-1-piperazinyl)-7-oxo-7H-pyrido[1,2,3-de][1,4]benzoxazine-6carboxylic acid, reference compound]
- MIC (K. pneumoniae Y-4*; 20 h): 0.39 µg/mL (≈ 1.08 µM)
- MIC (P. aeruginosa GN-918*; [2]): 3.13 µg/mL (≈ 8.66 µM)
- MIC (P. mirabilis T-111): 0.39 µg/mL (≈ 1.08 µM)
- MIC (S. marcescens W-134): 0.2 µg/mL (≈ 0.553 µM)
- MIC (E. coli NIHJ): ≤ 0.05 µg/mL
- MIC (E. coli TK-111): ≤ 0.05 µg/mL
- MIC (M. morganii T-216): 0.1 µg/mL (≈ 0.277 µM)
- MIC (C. freundii N-7; N7, 20 h): 0.39 µg/mL (≈ 1.08 µM)

SMILES: CC1COc2c(C3(N)CC3)c(F)cc3c(=O)c(C(=O)O)cn1c23.Cl (stereo not shown) [Test Compound 1, 10-(1-Aminocyclopropyl)-9-fluoro-3-methyl-7-oxo-2,3-dihydro-7H-pyrido[1,2,3-de][1,4] benzoxazine-6carboxylic acid hydrochloride]
- MIC (K. pneumoniae Y-4*; [3]): 0.2 µg/mL
- MIC (P. aeruginosa GN-918*; [2]): 0.2 µg/mL
- MIC (P. mirabilis T-111): 0.1 µg/mL
- MIC (S. marcescens W-134): 0.1 µg/mL
- MIC (E. coli NIHJ): ≤ 0.05 µg/mL
- MIC (E. coli TK-111): ≤ 0.05 µg/mL
- MIC (M. morganii T-216): ≤ 0.05 µg/mL
- MIC (C. freundii N-7; [4]): ≤ 0.05 µg/mL

SMILES: CC1COc2c(C3(N)CC3)c(F)c(N)c3c(=O)c(C(=O)O)cn1c23.Cl (stereo not shown) [Test Compound 2, 8-Amino-10-(1-aminocyclopropyl)-9-fluoro-3-methyl-7-oxo-2,3-dihydro-7H-pyrido[1,2,3-de][1,4]-benzoxazine-6-carboxylic acid hydrochloride]
- MIC (K. pneumoniae Y-4*; 20 h): 0.39 µg/mL
- MIC (P. aeruginosa GN-918*; [2]): 0.78 µg/mL
- MIC (P. mirabilis T-111): 0.39 µg/mL
- MIC (S. marcescens W-134): 0.2 µg/mL
- MIC (E. coli NIHJ): ≤ 0.05 µg/mL
- MIC (E. coli TK-111): ≤ 0.05 µg/mL
- MIC (M. morganii T-216): 0.1 µg/mL
- MIC (C. freundii N-7; [4]): 0.1 µg/mL

SMILES: CC1COc2c(C3(N)CC3)c(F)c(F)c3c(=O)c(C(=O)O)cn1c23.Cl (stereo not shown) [Test Compound 3, 10-(1-Aminocyclopropyl)-8,9-difluoro-3-methyl-7-oxo-2,3-dihydro-7H-pyrido[1,2,3-de][1,4]benzoxazine-6-carboxylic acid hydrochloride]
- MIC (K. pneumoniae Y-4*; 20 h): 0.39 µg/mL
- MIC (P. aeruginosa GN-918*; [2]): 0.78 µg/mL
- MIC (P. mirabilis T-111): 0.2 µg/mL
- MIC (S. marcescens W-134): 0.2 µg/mL
- MIC (E. coli NIHJ): ≤ 0.05 µg/mL
- MIC (E. coli TK-111): ≤ 0.05 µg/mL
- MIC (M. morganii T-216): ≤ 0.05 µg/mL
- MIC (C. freundii N-7; [4]): 0.2 µg/mL

SMILES: CC1COc2c(C3(N)CC3)c(F)c(O)c3c(=O)c(C(=O)O)cn1c23.Cl (stereo not shown) [Test Compound 4, 10-(1-Aminocyclopropyl)-9-fluoro-8-hydroxy-3-methyl-7-oxo-2,3-dihydro-7H-pyrido[1,2,3-de][1,4]-benzoxazine-6-carboxylic acid hydrochloride]
- MIC (K. pneumoniae Y-4*; 20 h): 0.39 µg/mL
- MIC (P. aeruginosa GN-918*; [2]): 0.78 µg/mL
- MIC (P. mirabilis T-111): 0.2 µg/mL
- MIC (S. marcescens W-134): 0.2 µg/mL
- MIC (E. coli NIHJ): ≤ 0.05 µg/mL
- MIC (E. coli TK-111): ≤ 0.05 µg/mL
- MIC (M. morganii T-216): ≤ 0.05 µg/mL
- MIC (C. freundii N-7; N7, 20 h): 0.39 µg/mL

SMILES: C[C@H]1COc2c(C3(N)CC3)c(F)cc3c(=O)c(C(=O)O)cn1c23.Cl [Test Compound 5, (S)-10-(1-aminocyclopropyl)-9-fluoro-3-methyl-7-oxo-2,3-dihydro-7H-pyrido[1,2,3-de][1,4]benzoxazine-6-carboxylic acid hydrochloride]
- MIC (K. pneumoniae Y-4*; [3]): ≤ 0.05 µg/mL
- MIC (P. aeruginosa GN-918*; [2]): 0.1 µg/mL
- MIC (P. mirabilis T-111): ≤ 0.05 µg/mL
- MIC (S. marcescens W-134): ≤ 0.05 µg/mL
- MIC (E. coli NIHJ): ≤ 0.05 µg/mL
- MIC (E. coli TK-111): ≤ 0.05 µg/mL
- MIC (M. morganii T-216): ≤ 0.05 µg/mL
- MIC (C. freundii N-7; [4]): ≤ 0.05 µg/mL
- LD50 [1]: > 1000 mg/kg

SMILES: Cl.NC1(c2c(F)cc3c(=O)c(C(=O)O)cn4c3c2OCC4CF)CC1 (stereo not shown) [Test Compound 6, 10-(1-Aminocyclopropyl)-9-fluoro-3-fluoromethyl-7-oxo-2,3-dihydro-7H-pyrido[1,2,3-de][1,4]benzoxazine-6-carboxylic acid hydrochloride]
- MIC (K. pneumoniae Y-4*; [3]): 0.2 µg/mL
- MIC (P. aeruginosa GN-918*; [2]): 0.2 µg/mL
- MIC (P. mirabilis T-111): 0.1 µg/mL
- MIC (S. marcescens W-134): 0.1 µg/mL
- MIC (E. coli NIHJ): ≤ 0.05 µg/mL
- MIC (E. coli TK-111): ≤ 0.05 µg/mL
- MIC (M. morganii T-216): ≤ 0.05 µg/mL
- MIC (C. freundii N-7; [4]): 0.1 µg/mL

SMILES: CC[C@H]1COc2c(C3(N)CC3)c(F)cc3c(=O)c(C(=O)O)cn1c23.Cl [Test Compound 7, (S)-10-(1-aminocyclopropyl)-3-ethyl-9-fluoro-7-oxo-2,3-dihydro-7H-pyrido[1,2,3-de][1,4]benzoxazine-6carboxylic acid hydrochloride]
- MIC (K. pneumoniae Y-4*; [3]): 0.2 µg/mL
- MIC (P. aeruginosa GN-918*; [2]): 0.2 µg/mL
- MIC (P. mirabilis T-111): 0.2 µg/mL
- MIC (S. marcescens W-134): 0.1 µg/mL
- MIC (E. coli NIHJ): ≤ 0.05 µg/mL
- MIC (E. coli TK-111): ≤ 0.05 µg/mL
- MIC (M. morganii T-216): ≤ 0.05 µg/mL
- MIC (C. freundii N-7; [4]): 0.1 µg/mL

SMILES: Br.C=C1COc2c(C3(N)CC3)c(F)cc3c(=O)c(C(=O)O)cn1c23 [Test Compound 8, 10-(1-Aminocyclopropyl)-9-fluoro-3-methylene-7-oxo-2,3-dihydro-7H-pyrido[1,2,3-de][1,4]benzoxazine-6-carboxylic acid hydrobromide]
- MIC (K. pneumoniae Y-4*; [3]): 0.2 µg/mL
- MIC (P. aeruginosa GN-918*; GN918, 20 h): 0.39 µg/mL
- MIC (P. mirabilis T-111): 0.39 µg/mL
- MIC (S. marcescens W-134): 0.2 µg/mL
- MIC (E. coli NIHJ): 0.1 µg/mL
- MIC (E. coli TK-111): ≤ 0.05 µg/mL
- MIC (M. morganii T-216): 0.1 µg/mL
- MIC (C. freundii N-7; [4]): 0.1 µg/mL

SMILES: NC1(c2c(F)cc3c(=O)c(C(=O)O)cn4c3c2OCC42CC2)CC1 [Test Compound 9, 10'-(1-Aminocyclopropyl)-9'-fluoro-7+-oxospiro{cyclopropane-1,3'(2'H)-[7H]-pyrido[1,2,3-de][1,4]benzoxazine}-6'-carboxylic acid hydrochloride]
- MIC (K. pneumoniae Y-4*; 20 h): 0.39 µg/mL
- MIC (P. aeruginosa GN-918*; GN918, 20 h): 0.39 µg/mL
- MIC (P. mirabilis T-111): 0.39 µg/mL
- MIC (S. marcescens W-134): 0.2 µg/mL
- MIC (E. coli NIHJ): 0.1 µg/mL
- MIC (E. coli TK-111): ≤ 0.05 µg/mL
- MIC (M. morganii T-216): 0.1 µg/mL
- MIC (C. freundii N-7; [4]): 0.2 µg/mL

SMILES: CC1CC1(N)c1c(F)cc2c(=O)c(C(=O)O)cn3c2c1OC[C@@H]3C.Cl (stereo partly drawn) [Test Compound 10, (S)-10-(1-amino-2-methylcyclopropyl)-9-fluoro-3-methyl-7-oxo-2,3-dihydro-7H-pyrido[1,2,3-de][1,4]-benzoxazine-6-carboxylic acid hydrochloride]
- MIC (K. pneumoniae Y-4*; [3]): 0.2 µg/mL
- MIC (P. aeruginosa GN-918*; [2]): 0.2 µg/mL
- MIC (P. mirabilis T-111): 0.2 µg/mL
- MIC (S. marcescens W-134): 0.1 µg/mL
- MIC (E. coli NIHJ): ≤ 0.05 µg/mL
- MIC (E. coli TK-111): ≤ 0.05 µg/mL
- MIC (M. morganii T-216): ≤ 0.05 µg/mL
- MIC (C. freundii N-7; [4]): ≤ 0.05 µg/mL

SMILES: CNC1(c2c(F)cc3c(=O)c(C(=O)O)cn4c3c2OC[C@@H]4C)CC1.Cl [Test Compound 11, (S)-10-[1-(N-methylamino)cyclopropyl]-9-fluoro-3-methyl-7-oxo-2,3-dihydro-7H-pyrido[1,2,3-de][1,4]-benzoxazine-6-carboxylic acid hydrochloride]
- MIC (K. pneumoniae Y-4*; [3]): 0.1 µg/mL
- MIC (P. aeruginosa GN-918*; [2]): 0.2 µg/mL
- MIC (P. mirabilis T-111): 0.1 µg/mL
- MIC (S. marcescens W-134): 0.1 µg/mL
- MIC (E. coli NIHJ): ≤ 0.05 µg/mL
- MIC (E. coli TK-111): ≤ 0.05 µg/mL
- MIC (M. morganii T-216): ≤ 0.05 µg/mL
- MIC (C. freundii N-7; [4]): 0.1 µg/mL

Source: patent publication US4990508A, “Pyridone carboxylic acid derivatives and salts thereof, process for producing the same and antibacterial agents comprising the same” (Toyama Chemical Co., Ltd., priority 1988, dated 1991)
